# Reference: paper PMC12481576, “Barbituric Acid Derivatives as Covalent Inhibitors of Leishmania braziliensis Dihydroorotate Dehydrogenase” (Journal of Medicinal Chemistry, 2025)
# Where two headings read alike, the source gives them in different places.
# How the values were obtained:
# HsDHODH = target: T1, HsDHODH (Homo sapiens, UniProt Q02127); experiment: Selectivity assay: HsDHODH single-dose inhibition (DCIP reduction); assay type: biochemical
# T1 construct: made in house
# Method: […]. This finding highlights the potential of barbituric acid derivatives as selective inhibitors of LbDHODH.
# Human DHODH expression and purification were conducted following a protocol previously established in our laboratory. The purification was carried out by affinity chromatography on a Ni-NTA Agarose column (Qiagen[…] Cat. No. 30210). […] The reaction was performed in triplicate, initiated by adding 195 μL of reaction buffer to 5 μL of HsDHODH protein solution for a final concentration of 20 nM enzyme. As a blank, 195 μL of reaction buffer was added to 5 μL of Buffer A. The reaction was monitored at 610 nm every 3 s over 60 s. As a control, 5 μL of enzyme was added to 195 μL of reaction medium without compound. Enzymatic velocity was calculated, and the percentage of relative enzymatic activity was determined relative to the control.
# LbDHODH = LbDHODH (Leishmania braziliensis, UniProt E9AI53); experiment: biochemical; details: for IC50: LbDHODH
# LbDHODH, sequence (E9AI53 entry or part of it): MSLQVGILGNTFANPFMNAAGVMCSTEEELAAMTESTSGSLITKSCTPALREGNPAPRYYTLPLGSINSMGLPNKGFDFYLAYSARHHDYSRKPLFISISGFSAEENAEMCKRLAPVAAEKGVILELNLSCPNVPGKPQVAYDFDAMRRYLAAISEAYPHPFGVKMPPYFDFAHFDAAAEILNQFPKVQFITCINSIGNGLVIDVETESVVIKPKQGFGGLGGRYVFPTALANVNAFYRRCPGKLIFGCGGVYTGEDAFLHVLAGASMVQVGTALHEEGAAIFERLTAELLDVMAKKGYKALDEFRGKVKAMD
# Method: To assess the ability of compounds 2a–2i to inhibit LbDHODH via covalent bond formation with Cys^131, we initially screened them at a concentration of 100 μM under two conditions: with and without a 4-h preincubation with the enzyme.
# The experiments were performed in a 96-well microplate reader (SpectraMax Plus 384, Molecular Devices, USA), containing the […] of the buffer 60 mM DCIP, 50 mM Tris pH 8.15, 150 mM KCl, 0.1% Triton X-100, 50 μM DHO and 10 μM of LbDHODH at 165 nM. The reaction was monitored every 3 s at 610 nm over a period of 60 s, in triplicate, for the control and each concentration of the inhibitor. All assays were performed without incubation (0h) and with 4-h preincubation of the inhibitor with LbDHODH, using 5% DMSO (v/v) as control. […]. […] The resulting kobs values were plotted as a function of inhibitor concentration, and the data in the initial linear region was fit to determine the slope, which is kinact/KI. All regressions were performed with GraphPad Prism 9.
# [1] = system: Leishmania braziliensis promastigotes; experiment: Leishmanicidal activity, promastigote growth (SYBR Green, 72 h); assay type: cell-based, Leishmania (V.) braziliensis (MHOM/BR/1975/M2904); details: Leishmania braziliensis, L. braziliensis promastigotes, max 200 μM
# Method: The cultures were adjusted to 4 × 10^6 parasites per mL, and 50 μL of each culture was added on a test plate with 384 wells (Corning, #CLS3658), along with the controls and compounds to be tested. Previously diluted compounds in DMSO were added to plates in decreasing concentrations, with a maximum concentration of 200 μM. Parasites were exposed to a final concentration of DMSO in various dilutes (final = 0.5%), and the culture medium was used as the control for the experiment. […] After adding the lysis buffer, the plates were incubated in the dark for 2 h with gentle shaking. The readings were done using a SpectraMax M3 reader (excitation at 485 nm and emission at 535 nm).
# [2] = Cell viability / cytotoxicity assay (PrestoBlue, 72 h); assay type: cell-based; details: human
# Method: THP-1 cells (American Type Cell Collection, #TIB-202) were acquired in 2019 and stored frozen in liquid nitrogen. The cells were then maintained in RPMI 1640 (Thermo Fisher Scientific, #S31800–022) at 37 °C in a 5% CO2 atmosphere and routinely tested for Mycoplasma contamination by PCR using the primers 5′-[…] and 5′-[…]. To test the toxicity of compounds, 5000 cells were added to 96-well plates with a final volume of 80 μL centrifuged at 400g for 2 min and incubated with 150 ng/mL of phorbol myristate acetate (Merck, #P8139) for 48 h. The medium was replaced, and after 24 h, the compounds were added and tested at decreasing concentrations starting from 200 μM (10 μL/well). After 72 h of incubation, 10 μL of PrestoBlue Cell Viability Reagent (Thermo Fisher Scientific, #A13262) was added per well. After adding the reagent, the cells were incubated for 2 h at 37 °C in a 5% CO2 atmosphere, and fluorescence readings were performed using the SpectraMax M3 reader (excitation at 560 nm and emission at 590 nm).
# [3] = Parallel artificial membrane permeability assay (PAMPA); details: PBS pH 7.4/7.4, 6h at room temperature; for recovery at 6 h, 10 µM: PAMPA; for recovery at 6 h, 10 µM / Avg Pe / Avg Log Pe (cm/sec): 10µM; for Pe (nm/sec) n=1: replicate n=1; for Pe (nm/sec) n=1 / Pe (nm/sec) n=2: 10µM (5% DMSO), LC-MS/MS; for Pe (nm/sec) n=2: replicate n=2
# Method: Solutions of the compounds were prepared in duplicate by diluting the stock solutions (10 mM) in phosphate buffered saline (PBS) pH 7.4 at a final concentration of 10 μM (5% DMSO). The solutions diluted in PBS pH 7.4 were then added to the donor portion of the plate (300 μL/well), while in the acceptor portion PBS pH 7.4 (200 μL/well) was added. The two portions of the plate were then coupled, and the system was incubated for 6 h at room temperature. Samples of the initial donor solution (T0) were collected at the beginning (T0) and stored at 5 °C. The final concentrations of compounds in the donor, acceptor and T0 wells were quantified by LC-MS/MS.
# [4] = mouse liver microsomes; for Raw data: analyte peak area, T=0: 0 min; for Raw data: analyte peak area, T=0 / Raw data: analyte peak area, T=5 / Raw data: analyte peak area, T=10 / Raw data: analyte peak area, T=20 / Raw data: analyte peak area, T=30 / Raw data: analyte peak area, T=60: raw LC-MS area; for Raw data: analyte peak area, T=10: 10 min; for Raw data: analyte peak area, T=30: 30 min; for Raw data: analyte peak area, T=60: 60 min
# in vitro = details: liver microsomes, pH 7.4, % Remaining, 1 µM; for remaining at 10 min, 1 µM: T=10 min; for remaining at 1 h, 1 µM: T=60 min, 60 min
# [5] = read-out: Single dose (0h) % activity
# [6] = read-out: Single dose (4h) % activity
# [7] = IC50 0 h, without preincubation
# [8] = THP-1 cell line, 72 h, max 200 μM, read-out: CC50
# [9] = LbDHODH remaining activity, compound 100 μM, 4-h preincubation, read-out: single dose (4 h) % activity
# [10] = LbDHODH remaining activity, compound 100 μM, without preincubation, read-out: single dose (0 h) % activity
# [11] = pH 7.4, % Recovery n=1, replicate n=1
# [12] = pH 7.4, % Recovery n=2, replicate n=2
# [13] = pH 7.4, Avg % Recovery, average of n=2
# [14] = mouse, n=1, mouse liver microsomes, n=1
# [15] = mouse, n=2, mouse liver microsomes, n=2
# T1 sequence (Q02127 whole entry): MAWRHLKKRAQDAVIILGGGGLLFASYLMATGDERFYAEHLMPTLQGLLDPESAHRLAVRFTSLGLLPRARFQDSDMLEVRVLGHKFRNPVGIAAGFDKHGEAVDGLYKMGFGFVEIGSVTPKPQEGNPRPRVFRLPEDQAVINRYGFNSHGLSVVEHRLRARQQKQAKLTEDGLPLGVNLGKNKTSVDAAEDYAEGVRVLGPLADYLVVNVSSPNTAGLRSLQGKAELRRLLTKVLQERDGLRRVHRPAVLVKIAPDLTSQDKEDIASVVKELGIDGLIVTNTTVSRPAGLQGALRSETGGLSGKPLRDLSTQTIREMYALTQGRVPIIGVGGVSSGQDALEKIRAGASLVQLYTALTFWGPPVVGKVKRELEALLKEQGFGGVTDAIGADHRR
structure (smiles),measurement,setting,value
"O=C1NC(=O)C(Cc2ccc(N3CCOCC3)cc2[N+](=O)[O-])C(=O)N1 [3e, 5-(4-Morpholino-2-nitrobenzyl)pyrimidine-2,4,6(1H,3H,5H)-trione]",activity at 100 µM,HsDHODH; [5],105 ± 12%
same,activity at 100 µM,HsDHODH; [6],89 ± 9%
same,IC50,LbDHODH; [7],> 100 µM
same,IC50,"LbDHODH; IC50 4 h, 4-h preincubation",> 100 µM
same,activity at 100 µM,LbDHODH; [5],90 ± 10%
same,activity at 100 µM,LbDHODH; [6],80 ± 20%
same,EC50,[1],23 ± 16 µM
same,CC50 at 72 h,[2]; [8],> 200 µM
"O=C1NC(=O)C(Cc2ccc(C(=O)O)cc2)C(=O)N1 [3b, 4-((2,4,6-Trioxohexahydropyrimidin-5-yl)methyl)benzoic Acid]",activity at 100 µM,HsDHODH; [5],92 ± 10%
same,activity at 100 µM,HsDHODH; [6],83 ± 8%
same,IC50,LbDHODH; [7],> 100 µM
same,IC50,"LbDHODH; IC50 4 h, 4-h preincubation",> 100 µM
same,activity at 100 µM,LbDHODH; [5],109 ± 3%
same,activity at 100 µM,LbDHODH; [6],69 ± 2%
same,EC50,[1],> 200 µM
same,CC50 at 72 h,[2]; [8],> 200 µM
"O=C1NC(=O)C(Cc2cccc(O)c2)C(=O)N1 [3g, 5-(3-Hydroxybenzyl)pyrimidine-2,4,6(1H,3H,5H)-trione]",activity at 100 µM,HsDHODH; [5],87 ± 10%
same,activity at 100 µM,HsDHODH; [6],86 ± 10%
same,activity at 100 µM,LbDHODH; [9],36 ± 3%
same,activity at 100 µM,LbDHODH; [10],93 ± 5%
same,EC50,[1],> 200 µM
same,CC50 at 72 h,[2]; [8],> 200 µM
NS(=O)(=O)c1cc(C(=O)O)c(NCc2ccco2)cc1Cl [Furosemide],"recovery at 6 h, 10 µM",[3]; [11],89.7%
same,"recovery at 6 h, 10 µM",[3]; [12],91.4%
same,"recovery at 6 h, 10 µM",[3]; [13],90.6%
same,Avg Pe,[3]; average of n=2,4.97e-05 ×10⁻⁶ cm/s
same,Pe (nm/sec) n=1,[3],0.000533 nm/s
same,Pe (nm/sec) n=2,[3],0.000461 nm/s
CC(C)NCC(O)COc1cccc2ccccc12 (centres unmarked) [Propranolol],"Raw data: analyte peak area, T=0",[4]; replicate 1 (left block),97333
same,"Raw data: analyte peak area, T=0",[4]; replicate 2 (right block),94436
same,"% Remaining, T=5 min, n=1","[4]; 1 µM, 5 min, n=1",58.1%
same,"% Remaining, T=20 min, n=1","[4]; 1 µM, 20 min, n=1",31.9%
same,"Raw data: analyte peak area, T=5","[4]; 5 min, replicate 1 (left block)",56345
same,"Raw data: analyte peak area, T=5","[4]; 5 min, replicate 2 (right block)",55807
same,"Raw data: analyte peak area, T=10",[4]; replicate 1 (left block),45227
same,"Raw data: analyte peak area, T=10",[4]; replicate 2 (right block),43475
same,"Raw data: analyte peak area, T=20","[4]; 20 min, replicate 1 (left block)",29264
same,"Raw data: analyte peak area, T=20","[4]; 20 min, replicate 2 (right block)",29449
same,"Raw data: analyte peak area, T=30",[4]; replicate 1 (left block),21377
same,"Raw data: analyte peak area, T=30",[4]; replicate 2 (right block),25558
same,"Raw data: analyte peak area, T=60",[4]; replicate 1 (left block),15713
same,"Raw data: analyte peak area, T=60",[4]; replicate 2 (right block),15931
same,"remaining at 5 min, 1 μM","in vitro; male, CD1, mouse, T=5 min, n=2, mouse liver microsomes, 5 min, n=2",52.5%
same,"remaining at 10 min, 1 µM",in vitro; [14],46.8%
same,"remaining at 10 min, 1 µM",in vitro; [15],43.5%
same,"remaining at 20 min, 1 µM","in vitro; mouse, T=20 min, n=2, mouse liver microsomes, 20 min, n=2",31.2%
same,"remaining at 0.5 h, 1 µM","in vitro; mouse, T=30 min, n=1, mouse liver microsomes, 30 min, n=1",22.7%
same,"remaining at 1 h, 1 µM",in vitro; [14],16%
same,"remaining at 1 h, 1 µM",in vitro; [15],15.5%
same,"recovery at 6 h, 10 µM",[3]; [11],85.7%
same,"recovery at 6 h, 10 µM",[3]; [12],82.4%
same,"recovery at 6 h, 10 µM",[3]; [13],84%
same,Avg Log Pe (cm/sec),[3]; average of n=2,-5.2 cm/sec
same,Avg Pe,[3]; average of n=2,6.15 ×10⁻⁶ cm/s
same,Pe (nm/sec) n=1,[3],53.6 nm/s
same,Pe (nm/sec) n=2,[3],69.4 nm/s
NC(=O)N1c2ccccc2C=Cc2ccccc21 [Carbamazepine],"recovery at 6 h, 10 µM",[3]; [11],100%
same,"recovery at 6 h, 10 µM",[3]; [12],92.5%
same,"recovery at 6 h, 10 µM",[3]; [13],96.3%
same,Avg Log Pe (cm/sec),[3]; average of n=2,-5.1 cm/sec
same,Avg Pe,[3]; average of n=2,7.83 ×10⁻⁶ cm/s
same,Pe (nm/sec) n=1,[3],80.3 nm/s
same,Pe (nm/sec) n=2,[3],76.4 nm/s
"O=C(O)c1cc(=O)[nH]c(=O)[nH]1 [Orotate, orotate]",IC50,"LbDHODH; IC50 4 h, 4-h preincubation",27 ± 1 µM
same,activity at 100 µM,LbDHODH; [9],27 ± 2%
same,activity at 100 µM,LbDHODH; [10],35 ± 4%
same,IC50,"LbDHODH; without preincubation, read-out: IC50 0 h",57 ± 2 µM
"C[C@@H]1[C@H](O)[C@@H](C)/C=C/C=C/C=C/C=C/C=C/C=C/C=C/[C@H](O[C@@H]2O[C@H](C)[C@@H](O)[C@H](N)[C@@H]2O)C[C@@H]2O[C@](O)(C[C@@H](O)C[C@@H](O)[C@H](O)CC[C@@H](O)C[C@@H](O)CC(=O)O[C@H]1C)C[C@H](O)[C@H]2C(=O)O [Amp. B, Amphotericin B, reference compound]",EC50,[1]; read-out: EC50,0.4 ± 0.3 µM
same,CC50 at 72 h,[2],6 ± 2 µM
"C/C(O)=C(\C#N)C(=O)Nc1ccc(C(F)(F)F)cc1 [Teriflunomide, reference compound]",activity at 100 µM,"HsDHODH; HsDHODH remaining activity, 100 μM, 4-h incubation, read-out: Single dose (4h) % activity",0.39 ± 0.04%
same,activity at 100 µM,"HsDHODH; HsDHODH remaining activity, 100 μM, without incubation, read-out: Single dose (0h) % activity",0.6 ± 0.1%
